The values below come from ChEMBL document CHEMBL5649166, “RIP3 induces apoptosis independent of pronecrotic kinase activity” (Mol Cell, 2014).

In assay [1] the target is Angiopoietin-1 receptor (Homo sapiens) (UniProt Q02763). Nature of the assay: Inhibition of human TIE2/TEK using poly[Glu:Tyr] (4:1) as substrate at 1 uM in presence of 32P-ATP by Hotspot assay relative to control; values are per cent of control.
Assay [2] addresses T1, Serine/threonine-protein kinase NLK (Homo sapiens) (UniProt Q9UBE8).
T1 sequence (whole entry): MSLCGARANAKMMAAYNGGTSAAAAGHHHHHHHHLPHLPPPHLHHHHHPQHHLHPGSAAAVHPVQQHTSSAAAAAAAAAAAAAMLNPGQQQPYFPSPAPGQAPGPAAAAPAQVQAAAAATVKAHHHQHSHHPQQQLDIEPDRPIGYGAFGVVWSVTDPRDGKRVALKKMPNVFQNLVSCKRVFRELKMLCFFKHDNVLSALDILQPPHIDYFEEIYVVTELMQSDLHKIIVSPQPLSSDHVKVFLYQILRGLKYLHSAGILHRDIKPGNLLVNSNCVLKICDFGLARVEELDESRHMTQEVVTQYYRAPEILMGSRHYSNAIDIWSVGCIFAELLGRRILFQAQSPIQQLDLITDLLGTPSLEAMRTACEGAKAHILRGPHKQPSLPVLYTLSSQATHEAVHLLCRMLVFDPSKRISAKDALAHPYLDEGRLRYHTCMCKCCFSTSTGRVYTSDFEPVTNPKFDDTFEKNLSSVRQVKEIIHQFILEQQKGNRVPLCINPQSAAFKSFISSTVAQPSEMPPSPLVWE
In words: Inhibition of human NLK using myelin basic protein as substrate at 1 uM in presence of 32P-ATP by Hotspot assay relative to control; values are per cent of control.

For assay [3], the target named is Protein kinase C gamma type (Homo sapiens) (UniProt P05129). In words: Inhibition of human PKCg using ERMRPRKRQGSVRRRV as substrate at 1 uM in presence of 32P-ATP by Hotspot assay relative to control; values are per cent of control.
Assay [4] deals with T2, Protein kinase C iota type (Homo sapiens) (UniProt P41743).
T2 sequence (whole entry): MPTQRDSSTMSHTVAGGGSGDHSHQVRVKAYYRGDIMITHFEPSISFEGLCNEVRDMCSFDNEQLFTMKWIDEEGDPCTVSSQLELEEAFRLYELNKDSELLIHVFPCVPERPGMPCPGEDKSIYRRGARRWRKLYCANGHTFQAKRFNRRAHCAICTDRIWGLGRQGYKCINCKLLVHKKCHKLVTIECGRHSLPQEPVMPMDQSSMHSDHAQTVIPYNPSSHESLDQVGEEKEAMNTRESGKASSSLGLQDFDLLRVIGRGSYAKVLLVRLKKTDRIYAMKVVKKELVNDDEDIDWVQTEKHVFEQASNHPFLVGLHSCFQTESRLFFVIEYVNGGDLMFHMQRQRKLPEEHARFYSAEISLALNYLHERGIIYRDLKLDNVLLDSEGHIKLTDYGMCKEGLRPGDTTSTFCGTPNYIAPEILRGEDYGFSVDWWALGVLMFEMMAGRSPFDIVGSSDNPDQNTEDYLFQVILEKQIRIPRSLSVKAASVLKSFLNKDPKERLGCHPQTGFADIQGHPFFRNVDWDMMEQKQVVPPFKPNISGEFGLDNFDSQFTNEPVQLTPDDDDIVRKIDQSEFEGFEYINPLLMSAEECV
Nature of the assay: Inhibition of human PKCiota using ERMRPRKRQGSVRRRV as substrate at 1 uM in presence of 32P-ATP by Hotspot assay relative to control; values are per cent of control.

Assay [5] has as its target Glycogen synthase kinase-3 alpha (Homo sapiens) (UniProt P49840). Nature of the assay: Inhibition of human GSK3a using YRRAAVPPSPSLSRHSSPHQ(pS)EDEEE as substrate at 1 uM in presence of 32P-ATP by Hotspot assay relative to control; values are per cent of control.
The target in assay [6] is MAP kinase-activated protein kinase 3 (Homo sapiens) (UniProt Q16644). Nature of the assay: Inhibition of human MAPKAPK3 using KKLNRTLSVA as substrate at 1 uM in presence of 32P-ATP by Hotspot assay relative to control; values are per cent of control.
Sequence of MAP kinase-activated protein kinase 3 (Homo sapiens) (Q16644 whole entry, looked up): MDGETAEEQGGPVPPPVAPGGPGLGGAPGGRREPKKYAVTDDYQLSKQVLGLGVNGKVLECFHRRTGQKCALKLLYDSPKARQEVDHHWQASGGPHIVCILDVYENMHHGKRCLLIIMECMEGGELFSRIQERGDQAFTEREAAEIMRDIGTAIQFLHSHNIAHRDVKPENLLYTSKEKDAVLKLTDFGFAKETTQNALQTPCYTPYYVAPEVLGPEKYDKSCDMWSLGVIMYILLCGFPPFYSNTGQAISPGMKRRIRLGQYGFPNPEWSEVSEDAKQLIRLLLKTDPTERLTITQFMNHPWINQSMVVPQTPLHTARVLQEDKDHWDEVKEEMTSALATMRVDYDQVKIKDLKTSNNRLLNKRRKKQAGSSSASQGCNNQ
In assay [7] the target is Tyrosine-protein kinase HCK (Homo sapiens) (UniProt P08631). Nature of the assay: Inhibition of human HCK using KVEKIGEGTYGVVYK as substrate at 1 uM in presence of 32P-ATP by Hotspot assay relative to control; values are per cent of control.
Sequence of Tyrosine-protein kinase HCK (Homo sapiens) (P08631 2-526 limits assumed): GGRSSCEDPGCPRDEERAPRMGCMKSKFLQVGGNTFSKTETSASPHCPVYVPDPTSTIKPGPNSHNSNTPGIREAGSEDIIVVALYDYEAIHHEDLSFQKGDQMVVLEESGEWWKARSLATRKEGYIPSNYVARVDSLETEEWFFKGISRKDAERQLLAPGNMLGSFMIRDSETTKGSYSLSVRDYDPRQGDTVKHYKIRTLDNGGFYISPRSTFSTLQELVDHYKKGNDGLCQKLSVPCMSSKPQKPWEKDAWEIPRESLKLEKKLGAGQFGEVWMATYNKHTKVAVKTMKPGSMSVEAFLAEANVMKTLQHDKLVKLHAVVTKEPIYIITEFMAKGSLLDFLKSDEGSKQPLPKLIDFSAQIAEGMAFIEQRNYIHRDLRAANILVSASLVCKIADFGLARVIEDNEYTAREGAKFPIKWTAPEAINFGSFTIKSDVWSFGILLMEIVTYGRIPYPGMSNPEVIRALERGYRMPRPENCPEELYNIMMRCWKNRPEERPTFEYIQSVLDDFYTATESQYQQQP
In assay [8] the target is T3, Homeodomain-interacting protein kinase 4 (Homo sapiens) (UniProt Q8NE63).
T3 sequence (whole entry): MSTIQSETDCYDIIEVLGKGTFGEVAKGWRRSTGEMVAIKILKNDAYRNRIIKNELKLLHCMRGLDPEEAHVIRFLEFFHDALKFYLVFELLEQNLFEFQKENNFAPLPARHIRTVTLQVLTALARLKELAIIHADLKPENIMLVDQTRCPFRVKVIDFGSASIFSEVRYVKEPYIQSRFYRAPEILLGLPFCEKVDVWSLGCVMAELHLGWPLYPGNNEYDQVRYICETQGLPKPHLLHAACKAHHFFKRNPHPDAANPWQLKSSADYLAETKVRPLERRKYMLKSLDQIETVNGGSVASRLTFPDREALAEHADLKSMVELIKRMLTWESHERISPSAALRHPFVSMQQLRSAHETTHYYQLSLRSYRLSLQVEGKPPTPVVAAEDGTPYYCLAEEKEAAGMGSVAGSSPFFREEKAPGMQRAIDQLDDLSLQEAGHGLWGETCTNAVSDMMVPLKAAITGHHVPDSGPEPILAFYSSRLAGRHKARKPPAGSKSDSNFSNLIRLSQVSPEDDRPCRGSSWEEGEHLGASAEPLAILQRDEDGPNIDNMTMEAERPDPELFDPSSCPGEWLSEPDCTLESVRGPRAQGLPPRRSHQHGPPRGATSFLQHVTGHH
In words: Inhibition of human HIPK4 using myelin basic protein as substrate at 1 uM in presence of 32P-ATP by Hotspot assay relative to control; values are per cent of control.

Sequence of Angiopoietin-1 receptor (Homo sapiens) (Q02763 whole entry): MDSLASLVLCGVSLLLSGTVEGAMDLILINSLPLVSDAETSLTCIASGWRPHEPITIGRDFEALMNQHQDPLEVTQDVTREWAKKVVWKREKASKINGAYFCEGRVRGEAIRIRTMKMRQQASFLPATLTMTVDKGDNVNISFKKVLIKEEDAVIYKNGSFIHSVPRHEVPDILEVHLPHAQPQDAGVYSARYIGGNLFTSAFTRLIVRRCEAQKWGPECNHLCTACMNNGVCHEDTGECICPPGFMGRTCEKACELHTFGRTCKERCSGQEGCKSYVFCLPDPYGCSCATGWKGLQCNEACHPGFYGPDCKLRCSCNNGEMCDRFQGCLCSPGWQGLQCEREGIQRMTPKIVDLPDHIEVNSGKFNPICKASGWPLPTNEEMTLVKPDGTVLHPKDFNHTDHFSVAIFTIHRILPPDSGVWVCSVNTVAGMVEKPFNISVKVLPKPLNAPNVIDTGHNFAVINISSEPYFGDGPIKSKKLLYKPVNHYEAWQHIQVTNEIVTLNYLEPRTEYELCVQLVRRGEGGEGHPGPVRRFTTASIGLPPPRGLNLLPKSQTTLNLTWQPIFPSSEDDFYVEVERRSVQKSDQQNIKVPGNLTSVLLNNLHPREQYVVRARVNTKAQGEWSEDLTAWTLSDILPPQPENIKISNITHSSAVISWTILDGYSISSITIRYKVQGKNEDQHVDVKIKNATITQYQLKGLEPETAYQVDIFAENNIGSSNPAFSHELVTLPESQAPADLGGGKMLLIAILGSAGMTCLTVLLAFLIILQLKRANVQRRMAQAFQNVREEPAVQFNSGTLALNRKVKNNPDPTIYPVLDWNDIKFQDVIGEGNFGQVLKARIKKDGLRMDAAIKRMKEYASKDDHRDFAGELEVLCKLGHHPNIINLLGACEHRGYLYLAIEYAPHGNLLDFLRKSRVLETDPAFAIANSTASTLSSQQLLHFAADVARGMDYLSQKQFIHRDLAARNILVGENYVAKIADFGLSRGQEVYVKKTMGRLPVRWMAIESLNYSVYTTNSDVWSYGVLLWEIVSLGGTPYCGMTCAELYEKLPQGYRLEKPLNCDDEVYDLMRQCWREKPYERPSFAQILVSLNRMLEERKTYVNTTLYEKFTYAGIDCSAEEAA
Sequence of Glycogen synthase kinase-3 alpha (Homo sapiens) (P49840 2-483 limits assumed): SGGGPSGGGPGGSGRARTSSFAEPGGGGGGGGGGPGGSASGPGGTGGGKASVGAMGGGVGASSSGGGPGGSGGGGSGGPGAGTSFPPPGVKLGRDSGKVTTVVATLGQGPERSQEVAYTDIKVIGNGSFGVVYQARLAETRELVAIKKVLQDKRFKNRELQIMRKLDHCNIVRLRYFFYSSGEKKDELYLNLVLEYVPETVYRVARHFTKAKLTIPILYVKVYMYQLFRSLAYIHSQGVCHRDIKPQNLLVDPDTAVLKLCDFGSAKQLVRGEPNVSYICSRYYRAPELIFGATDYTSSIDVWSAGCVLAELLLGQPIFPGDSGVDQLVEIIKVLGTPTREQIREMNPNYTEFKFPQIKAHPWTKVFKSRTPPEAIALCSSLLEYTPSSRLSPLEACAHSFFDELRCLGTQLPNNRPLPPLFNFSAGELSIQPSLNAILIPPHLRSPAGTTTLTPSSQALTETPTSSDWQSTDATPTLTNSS

As for `CC(C)S(=O)(=O)c1ccc2nccc(Nc3ccc4scnc4c3)c2c1`, the residual activity in assay [1] was determined as 98.7%; in assay [2] it was 41.8%; in assay [3], 99.4%; in assay [4] it was 83%; in assay [5], 92.4%; in assay [6], 98.9%. Moreover, the residual activity was 23.1% in assay [7] and 93.7% in assay [8].
Take `CNC(=O)c1ccc2c(c1)ncn2-c1ccc(CC(=O)OC(C)(C)C)cc1`: the residual activity amounted to 87.2% in assay [1]; 99.7% in assay [2]; 85.7% in assay [3]; 93.8% in assay [4]; 99.8% in assay [5]; 98% in assay [6]. In addition, the residual activity in assay [7] was 76.1%; in assay [8], 107%.
With `Cc1cc(-c2cnc(N)c3c(-c4ccc5scnc5c4)csc23)n(C)n1`, the residual activity in assay [1] stood at 94.2%; in assay [2], 6.75%; in assay [3] it was 86.6%; in assay [4], 102%; in assay [5], 99.8%; in assay [6] it was 90.7%. Moreover, the residual activity in assay [7] came out at 41%; in assay [8] it was 106%.
